The values that follow come from US20060247271A1, “Sulphonyl hydroxamic acid derivatives as inhibitors of s-cd23” (priority 2003, published 2006).

Test [1] relates to release of soluble CD23 (RPMI 8866 cell plasma membranes). Put plainly: RPMI 8866 cell membrane CD23 cleavage activity assay. Type of test: biochemical, human. To be noted: RPMI 8866 plasma membranes, 37° C., sCD23 by EIA; read-out: IC50, inhibition of production of sCD23. The method, then:
Procedure 1: The ability of test compounds to inhibit the release of soluble CD23 was investigated by use of the following procedure.
RPMI 8866 Cell Membrane CD23 Cleavage Activity Assay:
Plasma membranes from RPMI 8866 cells, a human Epstein-Barr virus transformed B-cell line (Sarfati et al., Immunology 60 [1987] 539-547) expressing high levels of CD23 are purified using an aqueous extraction method. Cells resuspended in homogenization buffer (20 mM HEPES pH 7.4, 150 mM NaCl, 1.5 mM MgCl2, 1 mM DTT) are broken by N2 cavitation in a Parr bomb and the plasma membrane fraction mixed with other membranes is recovered by centrifugation at 10,000×g. […]
The fractionated membranes are incubated at 37° C. for times up to 4 hrs to produce fragments of CD23 which are separated from the membrane by filtration in 0.2 micron Durapore filter plates (Millipore) after quenching the assay with 5 uM Preparation 1 from WO 95/31457 ([4-(N-Hydroxyamino)-2-(R)-isobutyl-3-(S)-(2-thiophenethiomethyl)succinyl]-(S)-phenylalanine—methylamide sodium salt, prepared according to the procedure descibed in Example 11 of WO 90/05719). sCD23 released from the membrane is determined using the EIA kit from The Binding Site (Birmingham, UK) or a similar one utilising MHM6 anti-CD23 mAb [Rowe et al., Int. […]

In another test the target is T1, MMP-3 (Homo sapiens, UniProt P08254).
T1 construct: purchased Calbiochem
Put plainly: General MMP inhibition fluorescence quench assay, MMP-3. It is filed as biochemical. To be noted: room temperature. The method, then:
(§1) General MMP Inhibition Assays:
(§2) Inhibition of matrix metalloprotease activity was determined using a fluorescence quench assay with appropriate substrate. For example, MMP activity was determined using MMP activated using trypsin, according to Lark et al, Connective Tissue Res. 25, 52 (1990). The MMP is incubated at room temperature in a microtitre plate in a total volume of 100 ul, containing 0.15 M Tris Cl, 15 mM CaCl2, 0.2 M NaCl, pH 7.6 (assay buffer); inhibitor at concentrations up to 100 uM, with no more than 2% DMSO final concentration, 10 uM substrate (such as SDP-3815-PI for MMP-1, Peptides International). The MMP concentration is <10 nM, and determined empirically with the appropriate substrate to give at least a 20-fold increase in fluorescence emission in 30 min. Fluorescent excitation wavelength was 355 nm, emission wavelength 400-460 nm, and data points are collected to generate slope (change in fluorescence with time). Percent inhibition for each concentration is calculated from the slope at time zero, and IC50 values from the concentration dependence. MMP-1, 2, 3, 7, 9, 13, 14 may all be assayed in the same manner, using commercially available substrates reported to be effective for each enzyme. Enzymes were obtained from Calbiochem and activated using the same trypsin method.

The target of test [2] is T2, human recombinant collagenase (Homo sapiens, UniProt P03956).
T2 construct: made in house; host or cells: E. coli
T2 sequence (P03956 100-469): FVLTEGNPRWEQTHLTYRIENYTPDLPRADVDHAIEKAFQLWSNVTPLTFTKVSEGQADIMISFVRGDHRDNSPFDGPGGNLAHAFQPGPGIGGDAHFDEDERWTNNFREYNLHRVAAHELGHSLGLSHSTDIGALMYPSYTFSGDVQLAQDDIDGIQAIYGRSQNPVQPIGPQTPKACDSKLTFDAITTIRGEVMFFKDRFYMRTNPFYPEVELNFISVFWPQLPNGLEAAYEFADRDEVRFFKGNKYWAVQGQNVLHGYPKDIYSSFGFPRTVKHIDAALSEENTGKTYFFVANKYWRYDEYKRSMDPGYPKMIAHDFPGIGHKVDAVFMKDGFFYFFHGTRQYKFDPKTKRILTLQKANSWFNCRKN
Put plainly: Collagenase inhibition assay. Particulars: 37° C., 18 h, acetylated 3H type 1 bovine collagen. It is filed as biochemical. The protocol: Procedure 2: The ability of test compounds to inhibit matrix metalloproteases was investigated using the following procedures.
Collagenase Inhibition Assay:
The potency of compounds to act as inhibitors of collagenase was determined by the method of Cawston and Barrett (Anal. Biochem. 99, 340-345, 1979), hereby incorporated by reference, whereby a 1 mM solution of the inhibitor being tested or dilutions thereof, was incubated at 37° C. for 18 h with collagen and human recombinant collagenase, from synovial fibroblasts cloned, expressed and purified from E. Coli, (buffered with 150 mM Tris, pH 7.6, containing 15 mM calcium chloride, 0.05% Brij 35, 200 mM sodium chloride and 0.02% sodium azide). The collagen was acetylated ^3H type 1 bovine collagen prepared by the method of Cawston and Murphy (methods in Enzymology 80, 711,1981) The samples were centrifuged to sediment undigested collagen and an aliquot of the radioactive supernatant removed for assay on a scintillation counter as a measure of hydrolysis. The collagenase activity in the presence of 1 mM inhibitor, or dilution thereof, was compared to activity in a control devoid of inhibitor and the results reported as that concentration effecting 50% of the collagenase (IC50).

A further test deals with T3, MMP-13 (Homo sapiens, UniProt P45452).
T3 construct: purchased Calbiochem
In words: General MMP inhibition fluorescence quench assay, MMP-13. It is filed as biochemical. To be noted: room temperature. The protocol:
as §1, §2

T1 sequence (P08254 100-477, species assumed): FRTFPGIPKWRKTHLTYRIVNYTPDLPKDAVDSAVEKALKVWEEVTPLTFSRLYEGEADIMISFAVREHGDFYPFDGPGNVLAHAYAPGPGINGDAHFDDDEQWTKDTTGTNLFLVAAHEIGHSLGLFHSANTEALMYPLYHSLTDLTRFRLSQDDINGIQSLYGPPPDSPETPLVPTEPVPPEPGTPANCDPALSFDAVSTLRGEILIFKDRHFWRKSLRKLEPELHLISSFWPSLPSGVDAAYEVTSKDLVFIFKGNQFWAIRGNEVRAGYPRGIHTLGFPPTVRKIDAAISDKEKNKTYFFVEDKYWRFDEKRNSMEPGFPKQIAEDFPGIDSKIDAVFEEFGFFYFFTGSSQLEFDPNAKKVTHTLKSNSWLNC

As a reminder, the IC50 is the concentration needed to halve the response being measured. In the case of `O=C(NO)C(CS(=O)(=O)Cc1cnc2ccccc2c1)c1ccccc1` (centres unmarked) [Example 1, N-Hydroxy-2-phenyl-3-(3-quinolylmethanesulfonyl)-propionamide], the 50% inhibitory concentration (IC50) in test [1] was 0.01 µM; on MMP-3, more than 10 µM; in test [2], more than 10 µM.
With `CCCO[C@@H](CS(=O)(=O)Cc1cnc2ccccc2c1)C(=O)NO` [Example 2, (R)—N-Hydroxy-2-propoxy-3-(quinolin-3-ylmethanesulfonyl)-propionamide], the IC50 was determined as 0.11 µM in test [1] and 7 µM on MMP-13.
